# Measured values reported in publication PMC4901301 (Scientific Reports, 2016).
# System: Mtb H37Rv thyX Tet-OFF conditional knockdown mutant
# Type: cell-based, Mycobacterium tuberculosis
row,SMILES,MIC90 shift (increase in potency) upon ThyX depletion
1,CC(=O)N(C1=C(Cl)C(=O)c2ccccc2C1=O)c1cccc(F)c1 [Compound E10],no shift
2,COc1ccc(CC2=CC(=O)c3ccccc3C2=O)cc1 [Compound D5],no shift
3,O=C1C=C(Cc2ccc(F)cc2)C(=O)c2ccccc21 [Compound D4],no shift
4,CCS(=O)(=O)N1CCN(C2=C(Cl)C(=O)c3ccccc3C2=O)CC1 [Compound F2],~ 2 fold
5,O=C1C(Cl)=C(N2CCN(C(=O)c3ccc(F)cc3)CC2)C(=O)c2ccccc21 [Compound F1],no shift
